The results in this text go back to publication PMC6851181 (Scientific Reports, 2019).

A short description of data set [1]: Mouse IF pharmacokinetic study: plasma IF by HPLC, alone or after GFJ or naringin pre-administration. The format is in vivo, ICR male mice. Here is the method: For the study, 7 groups with 12 animals each were intragastrically (ig) administered with 300 mg/kg of IF. Then, we obtained 1 mL of blood by cardiac puncture at 2.5, 5, 7.5, 10, 20, 30, and 60 min post-administration.
Blood samples were immediately centrifuged at 3500 rpm. Aliquots of 250 µL were stored at −70 °C until the quantification of IF plasmatic concentrations was carried out.
Besides in our research, 7 groups with 12 animals each were ig administered with naringin (250 mg/kg) to evaluate its influence on the concentration/time profiles of IF, a chemical that was ig administered 60 min later (300 mg/kg). Seven other groups were ig administered GFJ (20.8 µL/g) and 60 min later ig treated with 300 mg/kg of IF. In both assays, we obtained blood samples at 2.5, 5, 7.5, 10, 20, 30, and 60 min post-administration. With the indicated design we examined the influence of GFJ or naringin on the concentration/time profiles of IF.
For the blood treatment, after thawing, we added 250 μL of the internal standard (CF) to each sample, after which the plasma was deproteinized with methanol 1:1.5 (plasma-methanol), and centrifuged at 3500 rpm for 10 min. Subsequently, we transferred 450 μL of the supernatant to an Eppendorf tube containing 550 μL of phosphate buffer 0.01 N, pH 4.0. The solution was activated with 1 mL of methanol plus 1 mL of phosphate buffer 0.01 N, pH 4.0, and loaded to a Bond Elut-CH cartridge under reduced pressure. The cartridge was washed with 1 mL of acetonitrile plus phosphate buffer 0.01 N, pH 4.0 (10–90%) and it was eluted with 500 μL of acetonitrile plus phosphate buffer 0.025 N, pH 4.0 (40–60%). A volume of 20 μL were injected in the stabilized HPLC system.
The pharmacokinetic parameters of IF and their interaction with naringin or GFJ were calculated by non-compartmental assessment of data using the computer program WinNonlin (V4.0, Pharsight, Mountain View, CA, USA). The maximum plasma concentrations (Cmax) and their time of occurrence (Tmax) were both obtained directly from the measured data. The area under the plasma concentration-time curve, from time zero to the time of the last measurable concentration (AUC0-t) was calculated with the linear trapezoidal method. AUC0-∞ was calculated AUC0-t + Ct/λz, where Ct is the last measurable concentration and λz the constant rate of terminal elimination. The corresponding half-life elimination (t1/2) was then calculated as 0.693/λz. The results corresponding to Cmax were statistically analyzed with the ANOVA and the Student-Newman-Keuls tests. With respect to AUC0-t, Tmax, and t1/2 the analysis was made with the Kruskal-Wallis test.

Data set [2] can be described thus: Stability of IF in the plasma of mouse under various storage conditions (HPLC). As to conditions: n = 3. The class given is in vitro ADME. As to the method: The short-term stability was determined after the exposure of the spiked samples to room temperature for 24 h. The long-term stability was evaluated after storage of the standard spiked plasma samples at −70 °C for 30 days. The freeze/thaw cycle stability was assessed after two complete freeze/thaw cycles (−70 to 25 °C) on consecutive days. The analytes were considered to be stable in plasma when 85–115% of the initial concentrations were found.
Chromatography conditions for the study were as follows: the mobile phase consisted of acetonitrile, potassium phosphate buffer 0.025 M at pH 4.0, and triethylamine (12:88:0.025, v/v) with a final pH of 6.2. The flow-rate was 1.2 mL/min. The analytical column was operated at ambient temperature. The HPLC system consisted of a Beckman System Gold, 128 Solvent Module with ultra-violet detection at 200 nm. We used a 3.5 μm Xterra RP-8 (4.6 × 150 mm) column. Data were collected by the HPLC system and transferred to a Dell Pentium computer.

The mark [3] stands for this setting: IF only, 300 mg/kg ig, mouse plasma, 300 mg/kg.
Where [4] appears, read: male, ICR, mouse, plasma, po, 300 mg/kg, GFJ 20.8 µL/g ig 1 h before IF 300 mg/kg ig, mouse plasma.
Setting [5] is: male, ICR, mouse, plasma, po, 300 mg/kg, IF only, 300 mg/kg ig, mouse plasma.
Where [6] appears, read: male, ICR, mouse, plasma, po, 300 mg/kg, naringin 250 mg/kg ig 1 h before IF 300 mg/kg ig, mouse plasma.

Like-named read-outs stand apart in the source and are kept apart here.

As a reminder, the Cmax is the highest concentration seen after dosing. Usually Tmax stands for the time at which the peak concentration occurs. For orientation: AUC(0-inf) means total exposure, with the tail of the curve extrapolated. A higher AUC(0-inf) goes with high exposure. Broadly, the half-life is how long it takes for the measured level to halve. On to `O=P1(NCCCl)OCCCN1CCCl` (stereo not drawn) [IF, ifosfamide], for which the Cmax is 71.35 ± 3.57^a♣ μg/mL in data set [1] (GFJ 20.8 µL/g ig 1 h before IF 300 mg/kg ig, mouse plasma); 58080 ± 5010 ng/mL in data set [1] (setting [3]); 71300 ng/mL in data set [1] (male, ICR, mouse, plasma, po, 300 mg/kg, GFJ 20.8 µL/g ig 1 h before IF 300 mg/kg ig, mouse plasma, read-out: Cmax); 58100 ng/mL in data set [1] (male, ICR, mouse, plasma, po, 300 mg/kg, IF only, 300 mg/kg ig, mouse plasma, read-out: Cmax); 64100 ± 4370 ng/mL in data set [1] (male, ICR, mouse, plasma, po, 300 mg/kg, naringin 250 mg/kg ig 1 h before IF 300 mg/kg ig, mouse plasma, read-out: Cmax); 64100 ng/mL in data set [1] (male, ICR, mouse, plasma, po, naringin 250 mg/kg ig 1 h before IF 300 mg/kg ig, mouse plasma, read-out: Cmax). Besides, the “AUC0−∞” value in data set [1] (setting [3]) stood at 2110.36 ± 114.98 µg·min/mL. Besides, the time of peak concentration (Tmax) in data set [1] (setting [3]) is 10.83 ± 1.28 min; in data set [1] (male, ICR, mouse, plasma, po, 300 mg/kg, GFJ 20.8 µL/g ig 1 h before IF 300 mg/kg ig, mouse plasma, read-out: Tmax (converted)) it was 8.7 min; in data set [1] (male, ICR, mouse, plasma, po, 300 mg/kg, IF only, 300 mg/kg ig, mouse plasma, read-out: Tmax (converted)), 10.8 min; in data set [1] (male, ICR, mouse, plasma, po, 300 mg/kg, naringin 250 mg/kg ig 1 h before IF 300 mg/kg ig, mouse plasma, read-out: Tmax (converted)), 5 min. The compound further yielded a t1/2 in data set [1] (setting [3]) of 23.55 ± 1.86 min. In addition, the AUC(0-inf) in data set [1] (setting [4]) was 34200 ng·h/mL; in data set [1] (setting [5]) it was 35200 ng·h/mL; in data set [1] (setting [6]), 37400 ng·h/mL. Also, the half-life in data set [1] (setting [4]) amounted to 16.5 ± 1.43 min; in data set [1] (setting [5]) it was 23.5 min; in data set [1] (setting [6]), 26.8 ± 3.77 min. For the same compound, the Concentration found was determined as 81.34 ± 4.99 µg/mL in data set [2] (freeze and thaw stability (−70 to 25 °C), two cycles, added 90 μg/mL); 108.34 ± 1.64 µg/mL in data set [2] (long-term (30 days, −70 °C), added 90 μg/mL); 12.31 ± 0.68 µg/mL in data set [2] (short-term (24 h, 25 °C), added 10 μg/mL); 100.11 ± 14.27 µg/mL in data set [2] (short-term (24 h, 25 °C), added 90 μg/mL).

As for `C[C@@H]1O[C@@H](O[C@H]2[C@H](Oc3cc(O)c4c(c3)O[C@H](c3ccc(O)cc3)CC4=O)O[C@H](CO)[C@@H](O)[C@@H]2O)[C@H](O)[C@H](O)[C@H]1O` [naringin, 4′,5,5-trihdroxy-flavanone-7-rhamnoglucoside], the “Change of half-life (t1/2) of IF with respect to IF alone” value in data set [1] (naringin 250 mg/kg ig 1 h before IF 300 mg/kg ig, mouse) is given as “no change”. Further, the “Difference of AUC0−∞ of IF with respect to IF alone” value in data set [1] (naringin 250 mg/kg or GFJ 20.8 µL/g ig 1 h before IF 300 mg/kg ig, mouse) is recorded as “no statistical difference”.
